ChEMBL document CHEMBL1770088, “Orally bioavailable imidazoazepanes as calcitonin gene-related peptide (CGRP) receptor antagonists: discovery of MK-2918” (Bioorg Med Chem Lett, 2011)

test system: not listed separately; assay: Oral bioavailability in rat at 10 mg/kg, po administered as a suspension in 1% aqueous methylcellulose; type: ADME, organism-based; conditions: in vivo

Point of comparison: CC1(c2cnc3n2C[C@H](c2cccc(F)c2F)CC[C@H]3NC(=O)N2CCC3(CC2)OC(=O)Nc2ncccc23)CCCO1 (some centres not stated), bioavailability 8%. Against it:
- O=C(N[C@@H]1CC[C@@H](c2cccc(F)c2F)Cn2c(CC(F)(F)F)cnc21)N1CCC2(CC1)C(=O)Nc1ncccc12 — higher, 47%
- COCc1cnc2n1C[C@H](c1cccc(F)c1F)CC[C@H]2NC(=O)N1CCC2(CC1)OC(=O)Nc1ncccc12 — higher, 15%

species on record: Homo sapiens; assay: Ratio of IC50 for inhibition of [35S]-MK-499 binding to human ERG channel to IC50 for inhibition of cell based CGRP-stimulated cAMP production; conditions: not given

Point of comparison: O=C(N[C@@H]1CC[C@@H](c2cccc(F)c2F)Cn2c(C3(C(F)(F)F)CC3)cnc21)N1CCC2(CC1)C(=O)Nc1ncccc12, Ratio IC50 880. Against it:
- COC(C)(C)c1cnc2n1C[C@H](c1cccc(F)c1F)CC[C@H]2NC(=O)N1CCC2(CC1)C(=O)Nc1ncccc12 — higher, 9700
- O=C(N[C@@H]1CC[C@@H](c2cccc(F)c2F)Cn2c(CC(F)(F)F)cnc21)N1CCC2(CC1)C(=O)Nc1ncccc12 — higher, 9300
- COCc1cnc2n1C[C@H](c1cccc(F)c1F)CC[C@H]2NC(=O)N1CCC2(CC1)OC(=O)Nc1ncccc12 — higher, 8900
- CCC(CC)(OC)c1cnc2n1C[C@H](c1cccc(F)c1F)CC[C@H]2NC(=O)N1CCC2(CC1)OC(=O)Nc1ncccc12 — higher, 3200
- O=C(N[C@@H]1CC[C@@H](c2cccc(F)c2F)Cn2c(CC(F)(F)F)nnc21)N1CCC2(CC1)C(=O)Nc1ncccc12 — higher, > 13000
- CCOC(C)(C)c1cnc2n1C[C@H](c1cccc(F)c1F)CC[C@H]2NC(=O)N1CCC2(CC1)OC(=O)Nc1ncccc12 — higher, 23000
- CC1(c2cnc3n2C[C@H](c2cccc(F)c2F)CC[C@H]3NC(=O)N2CCC3(CC2)OC(=O)Nc2ncccc23)CCCO1 (some centres not stated) — higher, 17000

test system: not listed separately; assay: Oral bioavailability in rat at 10 mg/kg, po administered as a solution in 1:1 imwitor:tween; type: ADME, organism-based; conditions: in vivo

Point of comparison: COC(C)(C)c1cnc2n1C[C@H](c1cccc(F)c1F)CC[C@H]2NC(=O)N1CCC2(CC1)C(=O)Nc1ncccc12, bioavailability 5%. Against it:
- O=C(N[C@@H]1CC[C@@H](c2cccc(F)c2F)Cn2c(CC(F)(F)F)nnc21)N1CCC2(CC1)C(=O)Nc1ncccc12 — higher, 6%

biological target: T1, Calcitonin gene-related peptide type 1 receptor (Homo sapiens, UniProt O60894+Q16602); assay: Antagonist activity at CGRP receptor assessed as inhibition of CGRP-stimulated cAMP production by cell based assay in presence of 50% human serum; type: functional; conditions: not given
T1 sequence (Q16602 whole entry, one chain of several): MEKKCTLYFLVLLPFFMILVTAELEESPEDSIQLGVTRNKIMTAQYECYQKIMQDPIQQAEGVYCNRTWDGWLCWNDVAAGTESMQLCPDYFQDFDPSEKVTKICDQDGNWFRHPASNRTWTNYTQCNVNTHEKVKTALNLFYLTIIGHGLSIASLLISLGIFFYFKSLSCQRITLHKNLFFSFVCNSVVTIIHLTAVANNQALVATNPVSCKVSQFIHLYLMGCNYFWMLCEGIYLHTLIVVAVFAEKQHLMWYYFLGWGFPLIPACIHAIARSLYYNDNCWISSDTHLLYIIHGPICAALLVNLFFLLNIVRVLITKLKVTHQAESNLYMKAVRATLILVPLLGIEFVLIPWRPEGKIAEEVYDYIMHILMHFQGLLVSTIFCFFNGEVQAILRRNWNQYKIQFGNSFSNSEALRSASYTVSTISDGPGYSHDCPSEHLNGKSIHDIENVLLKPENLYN

Point of comparison: CC1(c2cnc3n2C[C@H](c2cccc(F)c2F)CC[C@H]3NC(=O)N2CCC3(CC2)OC(=O)Nc2ncccc23)CCCO1 (some centres not stated), IC50 0.76 nM. Against it:
- COC(C)(C)c1cnc2n1C[C@H](c1cccc(F)c1F)CC[C@H]2NC(=O)N1CCC2(CC1)C(=O)Nc1ncccc12 — 1.8-fold higher, 1.4 nM
- O=C(N[C@@H]1CC[C@@H](c2cccc(F)c2F)Cn2c(CC(F)(F)F)cnc21)N1CCC2(CC1)C(=O)Nc1ncccc12 — 5.3-fold higher, 4 nM
- COCc1cnc2n1C[C@H](c1cccc(F)c1F)CC[C@H]2NC(=O)N1CCC2(CC1)OC(=O)Nc1ncccc12 — 2.2-fold higher, 1.7 nM
- CCC(CC)(OC)c1cnc2n1C[C@H](c1cccc(F)c1F)CC[C@H]2NC(=O)N1CCC2(CC1)OC(=O)Nc1ncccc12 — 1.8-fold lower, 0.42 nM
- O=C(N[C@@H]1CC[C@@H](c2cccc(F)c2F)Cn2c(CC(F)(F)F)nnc21)N1CCC2(CC1)C(=O)Nc1ncccc12 — 3.6-fold higher, 2.7 nM
- CCOC(C)(C)c1cnc2n1C[C@H](c1cccc(F)c1F)CC[C@H]2NC(=O)N1CCC2(CC1)OC(=O)Nc1ncccc12 — 3.8-fold higher, 2.9 nM
- O=C(N[C@@H]1CC[C@@H](c2cccc(F)c2F)Cn2c(C3(C(F)(F)F)CC3)cnc21)N1CCC2(CC1)C(=O)Nc1ncccc12 — 11-fold higher, 8.6 nM

biological target: T1, Calcitonin gene-related peptide type 1 receptor; assay: Displacement of [125I]-CGRP from human recombinant CGRP receptor; conditions: not given

Point of comparison: COCc1cnc2n1C[C@H](c1cccc(F)c1F)CC[C@H]2NC(=O)N1CCC2(CC1)OC(=O)Nc1ncccc12, Ki 0.14 nM. Against it:
- COC(C)(C)c1cnc2n1C[C@H](c1cccc(F)c1F)CC[C@H]2NC(=O)N1CCC2(CC1)C(=O)Nc1ncccc12 — 2.9-fold higher, 0.4 nM
- O=C(N[C@@H]1CC[C@@H](c2cccc(F)c2F)Cn2c(CC(F)(F)F)cnc21)N1CCC2(CC1)C(=O)Nc1ncccc12 — 4.4-fold higher, 0.61 nM
- CCC(CC)(OC)c1cnc2n1C[C@H](c1cccc(F)c1F)CC[C@H]2NC(=O)N1CCC2(CC1)OC(=O)Nc1ncccc12 — 3.6-fold lower, 0.039 nM
- O=C(N[C@@H]1CC[C@@H](c2cccc(F)c2F)Cn2c(CC(F)(F)F)nnc21)N1CCC2(CC1)C(=O)Nc1ncccc12 — 3.4-fold higher, 0.48 nM
- CCOC(C)(C)c1cnc2n1C[C@H](c1cccc(F)c1F)CC[C@H]2NC(=O)N1CCC2(CC1)OC(=O)Nc1ncccc12 — 2.8-fold lower, 0.05 nM
- CC1(c2cnc3n2C[C@H](c2cccc(F)c2F)CC[C@H]3NC(=O)N2CCC3(CC2)OC(=O)Nc2ncccc23)CCCO1 (some centres not stated) — 3.9-fold lower, 0.036 nM
- O=C(N[C@@H]1CC[C@@H](c2cccc(F)c2F)Cn2c(C3(C(F)(F)F)CC3)cnc21)N1CCC2(CC1)C(=O)Nc1ncccc12 — 4.5-fold higher, 0.63 nM

biological target: T1, Calcitonin gene-related peptide type 1 receptor; assay: Antagonist activity at CGRP receptor assessed as inhibition of CGRP-stimulated cAMP production by cell based assay; type: functional; conditions: not given

Point of comparison: COC(C)(C)c1cnc2n1C[C@H](c1cccc(F)c1F)CC[C@H]2NC(=O)N1CCC2(CC1)C(=O)Nc1ncccc12, IC50 0.82 nM. Against it:
- O=C(N[C@@H]1CC[C@@H](c2cccc(F)c2F)Cn2c(CC(F)(F)F)cnc21)N1CCC2(CC1)C(=O)Nc1ncccc12 — within 1.5-fold, 0.94 nM
- COCc1cnc2n1C[C@H](c1cccc(F)c1F)CC[C@H]2NC(=O)N1CCC2(CC1)OC(=O)Nc1ncccc12 — within 1.5-fold, 0.61 nM
- CCC(CC)(OC)c1cnc2n1C[C@H](c1cccc(F)c1F)CC[C@H]2NC(=O)N1CCC2(CC1)OC(=O)Nc1ncccc12 — 3.3-fold lower, 0.25 nM
- O=C(N[C@@H]1CC[C@@H](c2cccc(F)c2F)Cn2c(CC(F)(F)F)nnc21)N1CCC2(CC1)C(=O)Nc1ncccc12 — 2.8-fold higher, 2.3 nM
- CCOC(C)(C)c1cnc2n1C[C@H](c1cccc(F)c1F)CC[C@H]2NC(=O)N1CCC2(CC1)OC(=O)Nc1ncccc12 — 2.6-fold lower, 0.32 nM
- CC1(c2cnc3n2C[C@H](c2cccc(F)c2F)CC[C@H]3NC(=O)N2CCC3(CC2)OC(=O)Nc2ncccc23)CCCO1 (some centres not stated) — 3.9-fold lower, 0.21 nM
- O=C(N[C@@H]1CC[C@@H](c2cccc(F)c2F)Cn2c(C3(C(F)(F)F)CC3)cnc21)N1CCC2(CC1)C(=O)Nc1ncccc12 — 1.7-fold higher, 1.4 nM
